Results reported in PMC8924211 (Nature Communications, 2022).
Changes are numbered by the printed parent chain.

How the values were obtained:
Assay in all cases: Calcium assay, HEK293/Gα16 cells, GAL2R mutants
Format in all cases: cell-based
[1] = target: T1, GAL2R mutants (Homo sapiens, UniProt O43603, T267A); settings: GAL2R T2677.28A
T1 construct: expressed in transfected cells; host or cells: HEK293
T1 sequence (O43603 1-387 T267A): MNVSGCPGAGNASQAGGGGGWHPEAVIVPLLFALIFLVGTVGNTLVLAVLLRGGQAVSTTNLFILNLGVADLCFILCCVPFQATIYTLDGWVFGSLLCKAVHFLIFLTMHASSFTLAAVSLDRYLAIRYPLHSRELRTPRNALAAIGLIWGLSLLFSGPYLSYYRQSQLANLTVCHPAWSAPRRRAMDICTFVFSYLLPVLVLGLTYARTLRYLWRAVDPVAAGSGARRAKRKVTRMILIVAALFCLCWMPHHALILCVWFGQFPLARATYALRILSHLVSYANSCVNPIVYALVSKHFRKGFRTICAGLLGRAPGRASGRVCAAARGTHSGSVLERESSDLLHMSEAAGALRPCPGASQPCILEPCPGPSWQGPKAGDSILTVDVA

[2] = target: T2, GAL2R mutants (Homo sapiens, UniProt O43603, L172A); settings: GAL2R L172ECL2A
T2 construct: expressed in transfected cells; host or cells: HEK293
T2 sequence (O43603 1-387 L172A): T1 sequence (O43603 1-387 T267A) with L172A, A267T

[3] = target: T3, GAL2R mutants (Homo sapiens, UniProt O43603, F264A); settings: GAL2R F264ECL3A
T3 construct: expressed in transfected cells; host or cells: HEK293
T3 sequence (O43603 1-387 F264A): T1 sequence (O43603 1-387 T267A) with F264A, A267T

[4] = target: T4, GAL2R mutants (Homo sapiens, UniProt O43603, Y271A); settings: GAL2R Y2717.32A
T4 construct: expressed in transfected cells; host or cells: HEK293
T4 sequence (O43603 1-387 Y271A): T1 sequence (O43603 1-387 T267A) with A267T, Y271A

[5] = target: T5, GAL2R mutants (Homo sapiens, UniProt O43603, I85A); settings: GAL2R I852.64A
T5 construct: expressed in transfected cells; host or cells: HEK293
T5 sequence (O43603 1-387 I85A): T1 sequence (O43603 1-387 T267A) with I85A, A267T

[6] = response of 100 μM spexin compared to WT, mean ± S.E.M.

spexin
Emax [1, 6]: 19.9±3.4% | EC50 ([1]; spexin, replicate 1): 0.0008339 µM | Emax ([1]; spexin, replicate 1): 26.5588% | EC50 ([1]; spexin, replicate 2): 10.49 µM | Emax ([1]; spexin, replicate 2): 17.6424% | EC50 ([1]; spexin, replicate 3): 1.506 µM | Emax ([1]; spexin, replicate 3): 15.5083% | Emax [2, 6]: 33.56±1.2% | EC50 ([2]; spexin, replicate 1): 3.125 µM | Emax ([2]; spexin, replicate 1): 31.8616% | EC50 ([2]; spexin, replicate 2): 10.79 µM | Emax ([2]; spexin, replicate 2): 33.0538% | EC50 ([2]; spexin, replicate 3): 12.08 µM | Emax ([2]; spexin, replicate 3): 35.752% | Emax [3, 6]: 40.26±1.3% | Emax ([3]; spexin, replicate 1): 42.8699% | Emax ([3]; spexin, replicate 2): 39.5775% | Emax ([3]; spexin, replicate 3): 38.3476% | Emax [4, 6]: 22.23±2.2% | EC50 ([4]; spexin, replicate 1): 5.958 µM | Emax ([4]; spexin, replicate 1): 23.9745% | EC50 ([4]; spexin, replicate 2): 1.581 µM | Emax ([4]; spexin, replicate 2): 17.9395% | EC50 ([4]; spexin, replicate 3): 0.7518 µM | Emax ([4]; spexin, replicate 3): 24.7776% | Emax ([5]; response of 100 μM spexin compared to WT): NR (NR, no response, refers to response < 10% compared to WT receptor (spexin at 100 μM)) | Emax ([5]; spexin, replicate 1): no response | Emax ([5]; spexin, replicate 2): no response | Emax ([5]; spexin, replicate 3): no response
